ChEMBL document CHEMBL1201862, “PubChem BioAssay data set” (2004)

What was measured:
Cytochrome P450 2C9 = Cytochrome P450 2C9 (Homo sapiens, UniProt P11712)
Cytochrome P450 2D6 = Cytochrome P450 2D6 (Homo sapiens, UniProt P10635);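 also: CYP2D6 member of a cytochrome P450 panel assay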
Cytochrome P450 2C19 = Cytochrome P450 2C19 (Homo sapiens, UniProt P33261); test: Cytochrome panel assay with activity outcomes. Panel member name: p450-cyp2c19 Compounds with AC50 equal or less than 10 uM are considered active; assay type: functional
Chain of Cytochrome P450 2C19 (P33261 whole entry): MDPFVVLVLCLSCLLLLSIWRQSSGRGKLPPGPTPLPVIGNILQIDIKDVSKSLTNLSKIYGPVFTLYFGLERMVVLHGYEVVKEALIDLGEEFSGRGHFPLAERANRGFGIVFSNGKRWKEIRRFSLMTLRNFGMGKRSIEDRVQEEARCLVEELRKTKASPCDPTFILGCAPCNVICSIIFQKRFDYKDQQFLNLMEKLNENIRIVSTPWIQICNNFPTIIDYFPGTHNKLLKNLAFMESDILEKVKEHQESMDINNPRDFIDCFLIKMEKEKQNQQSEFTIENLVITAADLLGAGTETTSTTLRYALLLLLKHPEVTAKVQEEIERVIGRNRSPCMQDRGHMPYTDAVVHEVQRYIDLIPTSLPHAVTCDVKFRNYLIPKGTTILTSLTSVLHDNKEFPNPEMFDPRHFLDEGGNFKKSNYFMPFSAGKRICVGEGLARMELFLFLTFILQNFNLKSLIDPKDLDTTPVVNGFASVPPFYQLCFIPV

Cytochrome P450 3A4 = Cytochrome P450 3A4 (Homo sapiens, UniProt P08684);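 also: CYP3A4 tested as one member of a cytochrome P450 panel screen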
Chain of Cytochrome P450 3A4 (P08684 whole entry): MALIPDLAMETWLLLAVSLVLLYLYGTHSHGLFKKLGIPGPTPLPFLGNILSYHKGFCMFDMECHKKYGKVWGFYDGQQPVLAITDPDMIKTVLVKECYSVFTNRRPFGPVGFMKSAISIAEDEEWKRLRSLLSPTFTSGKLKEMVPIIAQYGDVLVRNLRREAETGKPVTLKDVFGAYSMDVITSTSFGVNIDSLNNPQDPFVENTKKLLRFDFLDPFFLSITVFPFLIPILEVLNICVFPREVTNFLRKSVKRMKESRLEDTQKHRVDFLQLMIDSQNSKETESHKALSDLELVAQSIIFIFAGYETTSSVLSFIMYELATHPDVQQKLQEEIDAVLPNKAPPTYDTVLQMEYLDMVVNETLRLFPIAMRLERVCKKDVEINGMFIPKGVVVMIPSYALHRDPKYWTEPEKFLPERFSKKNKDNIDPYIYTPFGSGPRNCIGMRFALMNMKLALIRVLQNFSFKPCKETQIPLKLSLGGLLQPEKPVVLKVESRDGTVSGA

Measured: AC50

Chain of Cytochrome P450 2D6 (P10635 whole entry): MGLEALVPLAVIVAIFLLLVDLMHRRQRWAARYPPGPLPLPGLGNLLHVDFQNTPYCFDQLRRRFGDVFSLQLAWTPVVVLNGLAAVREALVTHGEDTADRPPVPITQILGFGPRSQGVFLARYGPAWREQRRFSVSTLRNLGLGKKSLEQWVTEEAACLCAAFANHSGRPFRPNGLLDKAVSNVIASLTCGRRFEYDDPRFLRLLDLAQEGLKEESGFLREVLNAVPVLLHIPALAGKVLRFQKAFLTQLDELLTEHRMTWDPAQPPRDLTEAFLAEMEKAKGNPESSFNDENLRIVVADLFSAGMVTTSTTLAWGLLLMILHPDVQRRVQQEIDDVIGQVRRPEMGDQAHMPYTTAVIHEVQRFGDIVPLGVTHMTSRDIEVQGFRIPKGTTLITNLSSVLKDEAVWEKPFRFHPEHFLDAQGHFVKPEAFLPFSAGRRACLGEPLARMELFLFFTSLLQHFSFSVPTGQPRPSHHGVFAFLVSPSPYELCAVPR
Chain of Cytochrome P450 2C9 (P11712 whole entry): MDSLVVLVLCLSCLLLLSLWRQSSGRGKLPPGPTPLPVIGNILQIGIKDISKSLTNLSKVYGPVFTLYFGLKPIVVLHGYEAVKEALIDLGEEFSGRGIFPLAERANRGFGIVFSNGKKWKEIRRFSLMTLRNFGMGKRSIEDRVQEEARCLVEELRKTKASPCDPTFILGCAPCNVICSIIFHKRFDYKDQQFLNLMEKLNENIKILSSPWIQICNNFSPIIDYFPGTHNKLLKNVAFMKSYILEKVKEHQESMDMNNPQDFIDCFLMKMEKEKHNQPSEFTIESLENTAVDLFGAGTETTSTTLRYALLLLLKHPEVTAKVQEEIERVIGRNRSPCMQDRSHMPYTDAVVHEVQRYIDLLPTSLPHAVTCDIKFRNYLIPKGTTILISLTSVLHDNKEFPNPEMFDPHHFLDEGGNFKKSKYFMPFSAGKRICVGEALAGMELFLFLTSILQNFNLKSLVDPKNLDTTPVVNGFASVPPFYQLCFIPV

O=C(Nc1nc2ccc(F)cc2s1)C1CCCO1 (stereo unspecified)
inconclusive: Cytochrome P450 2C9 39.8 µM | Cytochrome P450 2D6 | Cytochrome P450 2C19; read-out: AC50 25.1 µM

C[C@@H]1/C=C\CC(=O)OC[C@H](C)C(=O)N[C@@H](Cc2ccccc2)C(=O)OC1
inconclusive: Cytochrome P450 3A4 3.16 µM | Cytochrome P450 2D6 | Cytochrome P450 2C19
